We go through 28 molecules from patent US20080051420A1, “New Compounds 317” (AstraZeneca AB, priority 2006, published 2008).

Molecules are shown by their SMILES. pIC50: −log10 of the molar value.

For the assay, the target named is T1, human β-secretase (Homo sapiens, UniProt P56817).
T1 construct: The soluble part of the human β-secretase (AA 1-AA 460) was cloned; made in house
T1 sequence (P56817 22-460): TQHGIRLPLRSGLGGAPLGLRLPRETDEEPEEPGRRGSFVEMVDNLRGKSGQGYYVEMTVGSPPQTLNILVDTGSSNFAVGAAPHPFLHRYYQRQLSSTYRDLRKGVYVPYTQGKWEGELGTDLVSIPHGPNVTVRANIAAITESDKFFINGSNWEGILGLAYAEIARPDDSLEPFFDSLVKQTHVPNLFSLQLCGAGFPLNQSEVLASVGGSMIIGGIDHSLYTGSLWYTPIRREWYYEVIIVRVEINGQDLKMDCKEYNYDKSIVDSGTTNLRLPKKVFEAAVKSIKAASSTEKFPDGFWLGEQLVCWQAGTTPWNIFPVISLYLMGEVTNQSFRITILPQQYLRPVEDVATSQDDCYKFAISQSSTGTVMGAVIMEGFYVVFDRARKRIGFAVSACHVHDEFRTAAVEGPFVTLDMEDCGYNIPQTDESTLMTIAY
The assay can be described thus: TR-FRET assay (β-secretase enzyme, sBACE-Fc). As to conditions: read-out: IC50 in TR-FRET assay. In kind it is biochemical. The procedure:
The enzyme used in the IGEN Cleavage-, Fluorescent-, TR-FRET- and BiaCore assays is described as follows:
The soluble part of the human β-secretase (AA 1-AA 460) was cloned into the ASP2-F10-1-IRES-GFP-neoK mammalian expression vector. The gene was fused to the Fc domain of IgG1 (affinity tag) and stably cloned into HEK 293 cells. Purified sBACE-Fc is stored in Tris buffer, pH 9.2 and has a purity of 95%.
Enzyme was diluted to 6 μg/mL and the substrate (Europium)[…](Qsy7) to 200 nM in reaction buffer (NaAcetate, chaps, triton x-100, EDTA pH 4.5). Compounds were diluted to the desired concentration in dimethyl sulfoxide (final dimethyl sulfoxide concentration in assay is 5%). […] Enzyme (9 μL) and 1 μL of compound in dimethyl sulfoxide was added to the plate, mixed and pre-incubated for 10 min. Substrate (10 μL) was added and the reaction proceeded in the dark for 15 min at RT. The reaction was stopped with the addition of 7 μL NaAcetate, pH 9. […] The dimethyl sulfoxide control defined the 100% activity level and 0% activity was defined by exclusion of the enzyme (using reaction buffer instead).
Consider `CS(=O)(=O)Oc1ccc(C2(c3cccc(-c4cccnc4)c3)N=C(N)N3CCN=C32)cc1` (stereo not shown) [Example 77, 4-[5-Amino-7-(3-pyridin-3-ylphenyl)-2,7-dihydro-3H-imidazo[1,5-a]imidazol-7-yl]phenyl methanesulfonate 0.5 acetate], for which the pIC50 was 5.82.

As for `CS(=O)(=O)Oc1ccc(C2(c3cccc(-c4cccnc4F)c3)N=C(N)N3CCN=C32)cc1` (stereo not shown) [Example 78, 4-{5-Amino-7-[3-(2-fluoropyridin-3-yl)phenyl]-2,7-dihydro-3H-imidazo[1,5-a]imidazol-7-yl}phenyl methanesulfonate 0.5 acetate], the pIC50 is 6.07.

With `CS(=O)(=O)Oc1ccc(C2(c3cccc(-c4cc(Cl)cnc4F)c3)N=C(N)N3CCN=C32)cc1` (stereo not shown) [Example 79, 4-{5-Amino-7-[3-(5-chloro-2-fluoropyridin-3-yl)phenyl]-2,7-dihydro-3H-imidazo[1,5-a]imidazol-7-yl}phenyl methanesulfonate 0.5 acetate], the pIC50 is 6.36.

With `COc1cccc(-c2cccc(C3(c4ccc(OS(=O)(=O)C(C)C)cc4)N=C(N)N4CCN=C43)c2)c1` (stereo not shown) [Example 80, 4-[5-Amino-7-(3′-methoxybiphenyl-3-yl)-2,7-dihydro-3H-imidazo[1,5-a]imidazol-7-yl]phenyl propane-2-sulfonate 0.5 acetate], the negative logarithm of the IC50 (pIC50) was 5.86.

With `CC(C)S(=O)(=O)Oc1ccc(C2(c3cccc(-c4cc(Cl)cc(Cl)c4)c3)N=C(N)N3CCN=C32)cc1` (stereo not shown) [Example 81, 4-[5-Amino-7-(3′,5′-dichlorobiphenyl-3-yl)-2,7-dihydro-3H-imidazo[1,5-a]imidazol-7-yl]phenyl propane-2-sulfonate 0.5 acetate], the negative logarithm of the IC50 (pIC50) was 6.38.

Turning to `CC(C)S(=O)(=O)Oc1ccc(C2(c3cccc(-c4cccc(Cl)c4)c3)N=C(N)N3CCN=C32)cc1` (stereo not shown) [Example 82, 4-[5-Amino-7-(3′-chlorobiphenyl-3-yl)-2,7-dihydro-3H-imidazo[1,5-a]imidazol-7-yl]phenyl propane-2-sulfonate 0.5 acetate], the negative-log IC50 (pIC50) is 6.32.

As for `CC(C)S(=O)(=O)Oc1ccc(C2(c3cccc(-c4cccnc4)c3)N=C(N)N3CCN=C32)cc1` (stereo not shown) [Example 83, 4-[5-Amino-7-(3-pyridin-3-ylphenyl)-2,7-dihydro-3H-imidazo[1,5-a]imidazol-7-yl]phenyl propane-2-sulfonate 0.75 acetate], the pIC50 is 5.60.

As for `CC(C)S(=O)(=O)Oc1ccc(C2(c3cccc(-c4cccnc4F)c3)N=C(N)N3CCN=C32)cc1` (stereo not shown) [Example 84, 4-{5-Amino-7-[3-(2-fluoropyridin-3-yl)phenyl]-2,7-dihydro-3H-imidazo[1,5-a]imidazol-7-yl}phenyl propane-2-sulfonate 0.75 acetate], the pIC50 is 5.60.

Consider `COc1cncc(-c2cccc(C3(c4ccc(OS(=O)(=O)C(C)C)cc4)N=C(N)N4CCN=C43)c2)c1` (stereo not shown) [Example 85, 4-{5-Amino-7-[3-(5-methoxypyridin-3-yl)phenyl]-2,7-dihydro-3H-imidazo[1,5-a]imidazol-7-yl}phenyl propane-2-sulfonate 0.5 acetate], for which the negative logarithm of the IC50 (pIC50) is 5.99.

`NC1=NC(c2ccc(OS(=O)(=O)C(F)(F)F)cc2)(c2cccc(-c3cccc(Cl)c3)c2)C2=NCCN12` (stereo not shown) [Example 90, 4-[5-Amino-7-(3′-chlorobiphenyl-3-yl)-2,7-dihydro-3H-imidazo[1,5-a]imidazol-7-yl]phenyl trifluoromethanesulfonate 0.75 acetate]: the pIC50 was 6.95.

As to `NC1=NC(c2ccccc2)(c2cccc(Br)c2)C2=NCCCN12` (stereo not shown) [Example 98, 8-(3-Bromophenyl)-8-phenyl-2,3,4,8-tetrahydroimidazo[1,5-a]pyrimidin-6-amine], the pIC50 is 6.14.

Regarding `NC1=NC(c2cccc(Br)c2)(c2cccc(OS(=O)(=O)C(F)(F)F)c2)C2=NCCCN12` (stereo not shown) [Example 113, 3-[6-Amino-8-(3-bromophenyl)-2,3,4,8-tetrahydroimidazo[1,5-a]pyrimidin-8-yl]phenyl trifluoromethanesulfonate], the pIC50 is 5.92.

On to `CS(=O)(=O)Oc1cccc(C2(c3cccc(-c4cc(C(F)(F)F)cc(C(F)(F)F)c4)c3)N=C(N)N3CCCN=C32)c1` (stereo not shown) [Example 114, 3-{6-Amino-8-[3′,5′-bis(trifluoromethyl)biphenyl-3-yl]-2,3,4,8-tetrahydroimidazo[1,5-a]pyrimidin-8-yl}phenyl methanesulfonate], for which the pIC50 was 6.61.

In the case of `NC1=NC(c2cccc(OS(=O)(=O)C(F)(F)F)c2)(c2cccc(-c3cccc(Cl)c3)c2)C2=NCCCN12` (stereo not shown) [Example 115, 3-[6-Amino-8-(3′-chlorobiphenyl-3-yl)-2,3,4,8-tetrahydroimidazo[1,5-a]pyrimidin-8-yl]phenyl trifluoromethanesulfonate], the pIC50 was 6.97.

In the case of `CS(=O)(=O)Oc1cccc(C2(c3cccc(-c4cc(Cl)cc(Cl)c4)c3)N=C(N)N3CCCN=C32)c1` (stereo not shown) [Example 116, 3-[6-Amino-8-(3′,5′-dichlorobiphenyl-3-yl)-2,3,4,8-tetrahydroimidazo[1,5-a]pyrimidin-8-yl]phenyl methanesulfonate], the pIC50 was 6.55.

Turning to `CS(=O)(=O)Oc1cccc(C2(c3cccc(-c4cccc(Cl)c4)c3)N=C(N)N3CCCN=C32)c1` (stereo not shown) [Example 117, 3-[6-Amino-8-(3′-chlorobiphenyl-3-yl)-2,3,4,8-tetrahydroimidazo[1,5-a]pyrimidin-8-yl]phenyl methanesulfonate], the negative-log IC50 (pIC50) is 6.60.

On to `COc1cccc(-c2cccc(C3(c4cccc(OS(C)(=O)=O)c4)N=C(N)N4CCCN=C43)c2)c1` (stereo not shown) [Example 118, 3-[6-Amino-8-(3′-methoxybiphenyl-3-yl)-2,3,4,8-tetrahydroimidazo[1,5-a]pyrimidin-8-yl]phenyl methanesulfonate], for which the pIC50 was 6.19.

Take `CS(=O)(=O)Oc1cccc(C2(c3cccc(-c4cccnc4)c3)N=C(N)N3CCCN=C32)c1` (stereo not shown) [Example 119, 3-[6-Amino-8-(3-pyridin-3-ylphenyl)-2,3,4,8-tetrahydroimidazo[1,5-a]pyrimidin-8-yl]phenyl methanesulfonate]: the pIC50 was 6.12.

`CS(=O)(=O)Oc1cccc(C2(c3cccc(-c4cncnc4)c3)N=C(N)N3CCCN=C32)c1` (stereo not shown) [Example 120, 3-[6-Amino-8-(3-pyrimidin-5-ylphenyl)-2,3,4,8-tetrahydroimidazo[1,5-a]pyrimidin-8-yl]phenyl methanesulfonate]: the negative logarithm of the IC50 (pIC50) was 6.57.

With `CS(=O)(=O)Oc1cccc(C2(c3cccc(-c4cc(Cl)cnc4F)c3)N=C(N)N3CCCN=C32)c1` (stereo not shown) [Example 121, 3-{6-Amino-8-[3-(5-chloro-2-fluoropyridin-3-yl)phenyl]-2,3,4,8-tetrahydroimidazo[1,5-a]pyrimidin-8-yl}phenyl methanesulfonate], the pIC50 was 6.05.

On to `Cc1cc(C)cc(-c2cccc(C3(c4cccc(OS(C)(=O)=O)c4)N=C(N)N4CCCN=C43)c2)c1` (stereo not shown) [Example 122, 3-[6-Amino-8-(3′,5′-dimethylbiphenyl-3-yl)-2,3,4,8-tetrahydroimidazo[1,5-a]pyrimidin-8-yl]phenyl methanesulfonate], for which the negative logarithm of the IC50 (pIC50) was 7.16.

For `CCCS(=O)(=O)Oc1cccc(C2(c3cccc(-c4cc(Cl)cc(Cl)c4)c3)N=C(N)N3CCCN=C32)c1` (stereo not shown) [Example 123, 3-[6-Amino-8-(3′,5′-dichlorobiphenyl-3-yl)-2,3,4,8-tetrahydroimidazo[1,5-a]pyrimidin-8-yl]phenyl propane-1-sulfonate], the negative-log IC50 (pIC50) was 6.97.

For `CCCS(=O)(=O)Oc1cccc(C2(c3cccc(-c4cccc(OC)c4)c3)N=C(N)N3CCCN=C32)c1` (stereo not shown) [Example 124, 3-[6-Amino-8-(3′-methoxybiphenyl-3-yl)-2,3,4,8-tetrahydroimidazo[1,5-a]pyrimidin-8-yl]phenyl propane-1-sulfonate], the negative-log IC50 (pIC50) was 6.28.

As for `CCCS(=O)(=O)Oc1cccc(C2(c3cccc(-c4cncnc4)c3)N=C(N)N3CCCN=C32)c1` (stereo not shown) [Example 125, 3-[6-Amino-8-(3-pyrimidin-5-ylphenyl)-2,3,4,8-tetrahydroimidazo[1,5-a]pyrimidin-8-yl]phenyl propane-1-sulfonate], the negative logarithm of the IC50 (pIC50) is 7.29.

Turning to `NC1=NC(c2cccc(OS(=O)(=O)C3CC3)c2)(c2cccc(-c3cc(Cl)cc(Cl)c3)c2)C2=NCCCN12` (stereo not shown) [Example 126, 3-[6-Amino-8-(3′,5′-dichlorobiphenyl-3-yl)-2,3,4,8-tetrahydroimidazo[1,5-a]pyrimidin-8-yl]phenyl cyclopropanesulfonate], the negative logarithm of the IC50 (pIC50) is 6.81.

As for `COc1cccc(-c2cccc(C3(c4cccc(OS(=O)(=O)C5CC5)c4)N=C(N)N4CCCN=C43)c2)c1` (stereo not shown) [Example 127, 3-[6-Amino-8-(3′-methoxybiphenyl-3-yl)-2,3,4,8-tetrahydroimidazo[1,5-a]pyrimidin-8-yl]phenyl cyclopropanesulfonate], the pIC50 was 6.75.

Regarding `NC1=NC(c2cccc(OS(=O)(=O)C(F)(F)F)c2)(c2cccc(-c3cc(Cl)cc(Cl)c3)c2)C2=NCCCN12` (stereo not shown) [Example 128, 3-[6-Amino-8-(3′,5′-dichlorobiphenyl-3-yl)-2,3,4,8-tetrahydroimidazo[1,5-a]pyrimidin-8-yl]phenyl trifluoromethanesulfonate], the negative logarithm of the IC50 (pIC50) is 6.67.

On to `COc1cccc(-c2cccc(C3(c4cccc(OS(=O)(=O)C(F)(F)F)c4)N=C(N)N4CCCN=C43)c2)c1` (stereo not shown) [Example 129, 3-[6-Amino-8-(3′-methoxybiphenyl-3-yl)-2,3,4,8-tetrahydroimidazo[1,5-a]pyrimidin-8-yl]phenyl trifluoromethanesulfonate], for which the pIC50 was 6.33.

For orientation: pIC50 means the IC50 on a negative log10 scale, so that one unit is a factor of ten.
